SMILES strings stand for the structures. Read-outs that look alike come from different tables or passages of the source.

The nature of data set [1]: in vitro. The following applies: African green monkey.
For data set [2], the system named is VSV-S (pseudotyped VSV carrying the S protein of Wuhan-Hu-1 SARS-CoV-2). Description: microbe, parasite or virus in culture. The format is cell-based.
Data set [3] is described as follows: in vitro. To be noted: human.
Data set [4] concerns VSV-S (pseudotyped VSV carrying the S protein of Wuhan-Hu-1 SARS-CoV-2). Description: microbe, parasite or virus in culture. The format is cell-based. The following applies: Vesicular stomatitis virus, read-out: IC50 (concentration at which virus infection is reduced by 50%), VSV-S in A549-ACE2-TMPRSS2 cells.
Setting [5] is: Vesicular stomatitis virus, Vero C1008, read-out: IC50 (concentration at which virus infection is reduced by 50%), VSV-S in Vero E6 cells.

Regarding `O=C(CCC(CCC(=O)NC(Cc1c(Sc2ccc([N+](=O)[O-])cc2)[nH]c2ccccc12)C(=O)O)(CCC(=O)NC(Cc1c(Sc2ccc([N+](=O)[O-])cc2)[nH]c2ccccc12)C(=O)O)[N+](=O)[O-])NC(Cc1c(Sc2ccc([N+](=O)[O-])cc2)[nH]c2ccccc12)C(=O)O` (centres unmarked) [Compound 3], the CC50 in “in vitro [1]” is > 100 µM. The “primary HTS screening result (in words)” value in data set [2] is given as “effective”. Further, the IC50 in data set [2] (setting [5]) turned out to be 32.9 ± 4.48 µM; in data set [2] (read-out: IC50 (concentration at which virus infection is reduced by 50%), VSV-S in Vero E6 cells) it was 32.9 ± 4.5 µM.
Turning to `NCC(=O)NC(CCC(=O)NC(Cc1c(-c2ccc([N+](=O)[O-])cc2)[nH]c2ccccc12)C(=O)O)(CCC(=O)NC(Cc1c(-c2ccc([N+](=O)[O-])cc2)[nH]c2ccccc12)C(=O)O)CCC(=O)NC(Cc1c(-c2ccc([N+](=O)[O-])cc2)[nH]c2ccccc12)C(=O)O` (centres unmarked) [Compound 46], the “antiviral activity in the VSV-S assay (in words)” value in data set [2] is recorded as “antiviral activity is also lost”. For the same compound, the IC50 in data set [2] (setting [5]) was > 50 µM.
Turning to `NCC(=O)NC(CCC(=O)NC(Cc1c(Sc2ccc(F)cc2)[nH]c2ccccc12)C(=O)O)(CCC(=O)NC(Cc1c(Sc2ccc(F)cc2)[nH]c2ccccc12)C(=O)O)CCC(=O)NC(Cc1c(Sc2ccc(F)cc2)[nH]c2ccccc12)C(=O)O` (centres unmarked) [Compound 40], the CC50 in the data set “in vitro [1]” and in “in vitro [3]” was > 100 µM throughout. Moreover, the results for the IC50 in data set [2] (setting [5]) and in data set [4] were 33 ± 1.3 µM and 46.9 ± 17.5 µM, respectively.
Consider `N#Cc1ccc(Sc2[nH]c3ccccc3c2CC(NC(=O)CCC(CCC(=O)NC(Cc2c(Sc3ccc(C#N)cc3)[nH]c3ccccc23)C(=O)O)(CCC(=O)NC(Cc2c(Sc3ccc(C#N)cc3)[nH]c3ccccc23)C(=O)O)NC(=O)CN)C(=O)O)cc1` (centres unmarked) [Compound 39], for which the CC50 in the data set “in vitro [1]” and in the data set “in vitro [3]” was > 100 µM throughout. For the same compound, the IC50 came to 33.6 ± 7.2 µM in data set [2] (setting [5]) and 34.9 ± 8.7 µM in data set [4].
For the compound `CCCCCCCCCC(=O)NCC(=O)NC(CCC(=O)NC(Cc1c(Sc2ccc([N+](=O)[O-])cc2)[nH]c2ccccc12)C(=O)O)(CCC(=O)NC(Cc1c(Sc2ccc([N+](=O)[O-])cc2)[nH]c2ccccc12)C(=O)O)CCC(=O)NC(Cc1c(Sc2ccc([N+](=O)[O-])cc2)[nH]c2ccccc12)C(=O)O` (centres unmarked) [Compound 58], the CC50 in the data set “in vitro [1]” and in “in vitro [3]” was > 100 µM in each case. Also, the IC50 in data set [2] (setting [5]) came out at 21 ± 8.7 µM; in data set [4] it was 9.8 ± 4.3 µM.
For `NCC(=O)NC(CCC(=O)NC(Cc1c(C(=O)c2ccc([N+](=O)[O-])cc2)[nH]c2ccccc12)C(=O)O)(CCC(=O)NC(Cc1c(C(=O)c2ccc([N+](=O)[O-])cc2)[nH]c2ccccc12)C(=O)O)CCC(=O)NC(Cc1c(C(=O)c2ccc([N+](=O)[O-])cc2)[nH]c2ccccc12)C(=O)O` (centres unmarked) [Compound 50], the “antiviral activity in the VSV-S assay (in words)” value in data set [2] was “antiviral activity is also lost”. Moreover, the IC50 in data set [2] (setting [5]) was > 50 µM.
For `NCC(=O)NC(CCC(=O)NC(Cc1c(Sc2cccc([N+](=O)[O-])c2)[nH]c2ccccc12)C(=O)O)(CCC(=O)NC(Cc1c(Sc2cccc([N+](=O)[O-])c2)[nH]c2ccccc12)C(=O)O)CCC(=O)NC(Cc1c(Sc2cccc([N+](=O)[O-])c2)[nH]c2ccccc12)C(=O)O` (centres unmarked) [Compound 37], the CC50 in “in vitro [1]” and in the data set “in vitro [3]” was > 100 µM throughout. Moreover, the IC50 in data set [2] (setting [5]) came to 37.1 ± 15.9 µM; in data set [4], 8.6 ± 4.7 µM.
As to `CCCCCCCCCCCC(=O)NCC(=O)NC(CCC(=O)NC(Cc1c(Sc2ccc([N+](=O)[O-])cc2)[nH]c2ccccc12)C(=O)O)(CCC(=O)NC(Cc1c(Sc2ccc([N+](=O)[O-])cc2)[nH]c2ccccc12)C(=O)O)CCC(=O)NC(Cc1c(Sc2ccc([N+](=O)[O-])cc2)[nH]c2ccccc12)C(=O)O` (centres unmarked) [Compound 59], the CC50 in the data set “in vitro [1]” and in the data set “in vitro [3]” was > 100 µM throughout. The results for the IC50 in data set [2] (setting [5]) and in data set [4] were 30.3 ± 5.3 µM and 44.4 ± 23.4 µM, respectively.
As for `NCC(=O)NC(CCC(=O)NC(Cc1c(Sc2ccccc2[N+](=O)[O-])[nH]c2ccccc12)C(=O)O)(CCC(=O)NC(Cc1c(Sc2ccccc2[N+](=O)[O-])[nH]c2ccccc12)C(=O)O)CCC(=O)NC(Cc1c(Sc2ccccc2[N+](=O)[O-])[nH]c2ccccc12)C(=O)O` (centres unmarked) [Compound 36], in data set [2] (setting [5]), the IC50 was > 100 µM.

Source of the values: article PMC10424185, “C-2 Thiophenyl Tryptophan Trimers Inhibit Cellular Entry of SARS-CoV-2 through Interaction with the Viral Spike (S) Protein” (Journal of Medicinal Chemistry, 2023).
